Test results as given in ChEMBL document CHEMBL5325396, “Discovery of Novel Acridane-Based Tubulin Polymerization Inhibitors with Anticancer and Potential Immunomodulatory Effects” (J Med Chem, 2023).
pIC50: −log10 of the molar value.

Columns and labels:
[1] = Toxicity in C57 mouse allografted with mouse B16-F10 cells assessed as pathological damage in liver at 10 mg/kg, ip administered consecutively for 14 days by H and E staining based analysis; format: organism-based; conditions: in vivo, 336 h, time 14 day
B16-F10 [2] = assay: Induction of cell cycle arrest in mouse B16-F10 cells assessed as accumulation at G2 phase at 50 nM incubated for 24 hrs by PI staining based flow cytometry (reference value: 23.04 %); format: functional
B16-F10 [3] = assay: Induction of apoptosis in mouse B16-F10 cells assessed as late apoptotic cells at 50 nM incubated for 48 hrs by annexinV-FITC/PI staining based flow cytometry (reference value: 2.06 %); format: functional
B16-F10 [4] = assay: Induction of cell cycle arrest in mouse B16-F10 cells assessed as accumulation at S phase at 10 nM incubated for 24 hrs by PI staining based flow cytometry (reference value: 21.79 %); format: functional
B16-F10 [5] = assay: Induction of apoptosis in mouse B16-F10 cells assessed as viable cells at 10 nM incubated for 48 hrs by annexinV-FITC/PI staining based flow cytometry (reference value: 93.6 %); format: functional; conditions: read-out: Activity
B16-F10 [6] = assay: Induction of apoptosis in mouse B16-F10 cells assessed as necrotic cells at 25 nM incubated for 48 hrs by annexinV-FITC/PI staining based flow cytometry (reference value: 0.064 %); format: functional
B16-F10 [7] = assay: Immunomodulatory activity in mouse B16-F10 cells allografted in C57 mouse assessed as increase in CD3-positive CD8-positive cells at 10 mg/kg, ip administered consecutively for 14 days (reference value: 6.66 %); format: functional; conditions: time 14 day
B16-F10 [8] = assay: Inhibition of tubulin polymerization in mouse B16-F10 cells assessed as loss of cellular structure incubated for 6 hrs by fluorescence microscopy; format: cell-based; conditions: dose 10-50 nM
B16-F10 [9] = assay: Induction of apoptosis in mouse B16-F10 cells assessed as early apoptotic cells at 50 nM incubated for 48 hrs by annexinV-FITC/PI staining based flow cytometry (reference value: 4.25 %); format: functional
HCT-116 = assay: Antiproliferative activity against human HCT-116 cells incubated for 48 hrs by MTT assay; format: functional, cell-based; conditions: HCT-116, 48 h
B16-F10 [10] = assay: Immunomodulatory activity in mouse B16-F10 cells allografted in C57 mouse assessed as decrease in PD-L1 level at 10 mg/kg, ip administered consecutively for 14 days in presence of NP-19 relative to control; format: functional; design: scale not given: the % may be the effect or the level left; conditions: time 14 day
B16-F10 [11] = assay: Induction of apoptosis in mouse B16-F10 cells assessed as late apoptotic cells at 25 nM incubated for 48 hrs by annexinV-FITC/PI staining based flow cytometry (reference value: 2.06 %); format: functional
B16-F10 [12] = assay: Induction of cell cycle arrest in mouse B16-F10 cells assessed as accumulation at G2 phase at 25 nM incubated for 24 hrs by PI staining based flow cytometry (reference value: 23.04 %); format: functional
B16-F10 [13] = assay: Immunomodulatory activity in mouse B16-F10 cells allografted in C57 mouse assessed as increase in CD3-positive CD4-positive cells at 10 mg/kg, ip administered consecutively for 14 days in presence of NP-19 (reference value: 8.35 %); format: functional; conditions: time 14 day
B16-F10 [14] = assay: Induction of cell cycle arrest in mouse B16-F10 cells assessed as accumulation at S phase at 50 nM incubated for 24 hrs by PI staining based flow cytometry (reference value: 21.79 %); format: functional
[15] = Toxicity in C57 mouse allografted with mouse B16-F10 cells assessed as pathological damage in heart at 10 mg/kg, ip administered consecutively for 14 days by H and E staining based analysis; format: organism-based; conditions: in vivo, 336 h, time 14 day
B16-F10 [16] = assay: Inhibition of cell migration in mouse B16-F10 cells assessed as wound area ratio at 50 nM incubated for 24 hrs by wound healing assay relative to control; format: functional
B16-F10 [17] = assay: Inhibition of cell migration in mouse B16-F10 cells assessed as wound area ratio at 10 nM incubated for 24 hrs by wound healing assay relative to control; format: functional
B16-F10 [18] = assay: Inhibition of cell migration in mouse B16-F10 cells assessed as wound area ratio at 25 nM incubated for 24 hrs by wound healing assay relative to control; format: functional
B16-F10 [19] = assay: Induction of cell cycle arrest in mouse B16-F10 cells assessed as accumulation at G1 phase at 10 nM incubated for 24 hrs by PI staining based flow cytometry (reference value: 52.77 %); format: functional
B16-F10 [20] = assay: Inhibition of cell migration in mouse B16-F10 cells assessed as wound area recovery upto 50 nM incubated for 24 hrs by wound healing assay relative to control; format: functional; design: scale not given: the % may be the effect or the level left; conditions: up to 50 nM
B16-F10 [21] = assay: Inhibition of colony formation in mouse B16-F10 cells at 50 uM incubated for 24 hrs and subsequent replacement of medium without compound measured after 10 to 14 days by crystal violet staining based assay relative to control; format: functional
HeLa = assay: cells; conditions: Homo sapiens, 48 h
Description: Antiproliferative activity against human HeLa cells incubated for 48 hrs by MTT assay

[22] = Toxicity in C57 mouse allografted with mouse B16-F10 cells assessed as body weight loss at 10 mg/kg, ip administered consecutively for 14 days; format: organism-based; conditions: in vivo, 336 h, time 14 day
B16-F10 [23] = assay: Immunomodulatory activity in mouse B16-F10 cells allografted in C57 mouse assessed as increase in CD3-positive CD4-positive cells at 10 mg/kg, ip administered consecutively for 14 days (reference value: 8.35 %); format: functional; conditions: time 14 day
B16-F10 [24] = assay: Immunomodulatory activity in mouse B16-F10 cells allografted in C57 mouse assessed as increase in CD3-positive CD8-positive cells at 10 mg/kg, ip administered consecutively for 14 days in presence of NP-19 (reference value: 6.66 %); format: functional; conditions: time 14 day
HepG2 = assay: Antiproliferative activity against human HepG2 cells incubated for 48 hrs by MTT assay; format: functional, cell-based; conditions: HepG2, 48 h
B16-F10 [25] = assay: Antitumor activity against mouse B16-F10 cells allografted in C57 mouse assessed as tumor growth inhibition at 10 mg/kg, ip administered consecutively for 14 days in presence of NP-19; format: functional; conditions: B16-F10, 336 h, time 14 day, read-out: TGI
B16-F10 [26] = assay: Induction of apoptosis in mouse B16-F10 cells assessed as viable cells at 25 nM incubated for 48 hrs by annexinV-FITC/PI staining based flow cytometry (reference value: 93.6 %); format: functional; conditions: read-out: Activity
B16-F10 [27] = assay: Induction of apoptosis in mouse B16-F10 cells assessed as necrotic cells at 50 nM incubated for 48 hrs by annexinV-FITC/PI staining based flow cytometry (reference value: 0.064 %); format: functional
B16-F10 [28] = assay: Antitumor activity against mouse B16-F10 cells allografted in C57 mouse assessed as tumor growth inhibition at 10 mg/kg, ip administered consecutively for 14 days; format: functional; conditions: B16-F10, 336 h, time 14 day, read-out: TGI
B16-F10 [29] = assay: Induction of apoptosis in mouse B16-F10 cells assessed as early apoptotic cells at 10 nM incubated for 48 hrs by annexinV-FITC/PI staining based flow cytometry (reference value: 4.25 %); format: functional
B16-F10 [30] = assay: Induction of cell cycle arrest in mouse B16-F10 cells assessed as accumulation at G2 phase at 10 nM incubated for 24 hrs by PI staining based flow cytometry (reference value: 23.04 %); format: functional
Tubulin = Tubulin (Sus scrofa, UniProt P02554+P02550); assay: Inhibition of tubulin polymerization of pig brain microtubules by spectroscopic analysis; format: tissue-based

**Q.** Which Activity [1] does the source give for COc1ccc2c(c1F)Cc1ccccc1N2C(=O)c1cc(OC)c(OC)c(OC)c1 here?
**A.** Its Activity is “Non-Toxic”.

**Q.** What about the Activity (B16-F10 [2]) of the same compound?
**A.** The Activity was 71.11%.

**Q.** And the Activity (B16-F10 [3])?
**A.** Its Activity is 13.4%.

**Q.** And the Activity (B16-F10 [4])?
**A.** The Activity was 22.85%.

**Q.** And the viability at 0.01 µM (B16-F10 [5])?
**A.** The viability at 0.01 µM was 91%.

**Q.** What about the Activity (B16-F10 [6]) of the same compound?
**A.** Its Activity is 0.268%.

**Q.** What about the Activity (B16-F10 [7]) of the same compound?
**A.** The Activity was 8.17%.

**Q.** What about the inhibition (B16-F10 [8]) of the same compound?
**A.** The inhibition was “Dose-Dependent Effect”.

**Q.** What about the Activity (B16-F10 [9]) of the same compound?
**A.** The Activity was 36.8%.

**Q.** And the pIC50 (HCT-116)?
**A.** The pIC50 was 7.64.

**Q.** And the Activity (B16-F10 [10])?
**A.** The Activity was ~60%.

**Q.** And the Activity (B16-F10 [11])?
**A.** Its Activity is 6.63%.

**Q.** And the Activity (B16-F10 [12])?
**A.** Its Activity is 43.79%.

**Q.** And the Activity (B16-F10 [13])?
**A.** Its Activity is 26.3%.

**Q.** And the Activity (B16-F10 [14])?
**A.** The Activity was 24.31%.

**Q.** And the Activity [15]?
**A.** The Activity was “Non-Toxic”.

**Q.** And the Ratio (B16-F10 [16])?
**A.** Its Ratio is 7.2%.

**Q.** What about the Ratio (B16-F10 [17]) of the same compound?
**A.** The Ratio was 31.52%.

**Q.** And the Ratio (B16-F10 [18])?
**A.** The Ratio was 26.05%.

**Q.** And the Activity (B16-F10 [19])?
**A.** The Activity was 50.88%.

**Q.** What about the Activity (B16-F10 [20]) of the same compound?
**A.** Its Activity is 59.63%.

**Q.** What about the inhibition at 50 µM (B16-F10 [21]) of the same compound?
**A.** The inhibition at 50 µM was ~100%.

**Q.** And the pIC50 (HeLa)?
**A.** The pIC50 was 7.43.

**Q.** What about the Activity [22] of the same compound?
**A.** Its Activity is “Non-Toxic”.

**Q.** What about the Activity (B16-F10 [23]) of the same compound?
**A.** The Activity was 10.1%.

**Q.** And the Activity (B16-F10 [24])?
**A.** Its Activity is 19.5%.

**Q.** And the pIC50 (HepG2)?
**A.** The pIC50 was 7.39.

**Q.** What about the inhibition in vivo at 10 mg/kg (B16-F10 [25]) of the same compound?
**A.** The inhibition in vivo at 10 mg/kg was 77.6%.

**Q.** And the viability at 0.025 µM (B16-F10 [26])?
**A.** Its viability at 0.025 µM is 70.4%.

**Q.** What about the Activity (B16-F10 [27]) of the same compound?
**A.** The Activity was 0.61%.

**Q.** What about the inhibition in vivo at 10 mg/kg (B16-F10 [28]) of the same compound?
**A.** Its inhibition in vivo at 10 mg/kg is 65.1%.

**Q.** What about the Activity (B16-F10 [29]) of the same compound?
**A.** The Activity was 5.7%.

**Q.** And the Activity (B16-F10 [30])?
**A.** The Activity was 24.07%.

**Q.** What about the IC50 (Tubulin) of the same compound?
**A.** Its IC50 is 1500 nM.
